Experimental findings from patent publication US7439266B2, “Malononitrile compound and use thereof” (Sumitomo Chemical Company, Limited, priority 2002, dated 2008) are described below.

The test system of this experiment is Aphis gossypii. The experiment can be described thus: Test Example 3: spray on cucumber plant, Aphis gossypii. Conditions: 500 ppm, sprayed 20 ml/cup on cucumber plant with about twenty Aphis gossypii; sixth day after the treatment. The format is in vivo. Here is the method: The formulation obtained according to Formulation Example 5 using the present invention compounds (23) was diluted with water so that the active ingredient concentration came to 500 ppm to prepare a pesticidal solution for test.
At the same time, molding Aisai 1 (available from KATAOKA TIKKARIN Co., Ltd.) was put into a 90 ml polyethylene cup, and seeded with cucumber. The plant was grown until the first true leaf was developed, on which about twenty Aphis gossypii were allowed to be parasitic. On the next day, the above pesticidal solution for test was sprayed at a ratio of 20 ml/cup on the cucumber plant. On the sixth day after the application, the number of Aphis gossypii was examined.

In the case of `CC(C)(C)OC(=O)CC(C#N)(C#N)CCF` [present invention compound (23), 2-(tert-butoxycarbonylmethyl)-2-(2-fluoroethyl)malononitrile], the “number of parasitic Aphis gossypii” value is on record as at most 3.
